According to patent US4087520A, “Lowering blood pressure with new L-3-(3,4-dihydroxyphenyl)-2-methyl-alanine peptides” (Boehringer Mannheim GmbH, priority 1975, dated 1978):

Test system: blood pressure of rats with arterial high pressure
Experiment: Blood pressure depression in awake hypertensive rats (11-deoxycorticosteroneacetate plus common salt), direct arterial catheter measurement
Format: in vivo
Settings: hypertensive rats (10% sodium chloride in feed + 11-deoxycorticosteroneacetate), 0.6 millimole/kg perorally in 1% methyl cellulose, 4 hours after oral application, median of at least 6 measurements
Protocol: The test animals were rats into which arterial catheters had been implanted in a sterile operation via the arteria femoralis into the aorta. It was possible to measure the animals' blood pressure in the awake state directly in the blood with a transducer (Statham Transducer Type TP 23 D 6) via a carrier frequency measuring bridge. The animals were treated by administration of 10% common salt (sodium chloride) in their feed and, starting on the sixth week of their life, two injections per week of 5 mg at a time of 11-deoxycorticosteroneacetate per animal and thus developed an arterial high pressure in the median with values of […]. The test compounds were administered to the animals as follows: After the blood pressure control values had been determined, the animals received the test compound perorally suspended in 10 ml of 1% methyl cellusose solution in a dosage of 0.6 millimole/kg and measurements were taken 4 hours after oral application of the substance.
The values set forth in the Table represent in each case the median of at least 6 individual measurements of blood pressure depression (in mm Hg) per applied substance.

Row | Structure (SMILES) | Blood Pressure Reduction [mm Hg]
1 | C[C@H](N)C(=O)N[C@@H](C)C(=O)N[C@@](C)(Cc1ccc(O)c(O)c1)C(=O)O [L-Alanyl-L-alanyl-L-3-(3,4-dihydroxyphenyl)-2-methylalanine] | 58 ± 5.8
2 | C[C@@](Cc1ccc(O)c(O)c1)(NC(=O)[C@@H](N)CO)C(=O)O [L-Seryl-L-3-(3,4-dihydroxyphenyl)-2-methyl-alanine] | 52 ± 7.5
3 | C[C@H](N)C(=O)N[C@@](C)(Cc1ccc(O)c(O)c1)C(=O)O [L-Alanyl-L-3-(3,4-dihydroxyphenyl)-2-methyl-alanine] | 51 ± 6.0
4 | C[C@](N)(Cc1ccc(O)c(O)c1)C(=O)O [α-Methyl-Dopa, L-3-(3,4-dihydroxyphenyl)-2-methyl-alanine] | 33 ± 4.9
5 | C[C@@](Cc1ccc(O)c(O)c1)(NC(=O)CN)C(=O)O [Glycyl-L-3-(3,4-dihydroxyphenyl)-2-methyl-alanine] | 37 ± 9.1
